For this data set the following is noted: in ethanol.

This note sets out measurements from BigSolDB 2.1.

Structures are written as SMILES.

The term solubility (mole fraction) denotes the moles of solute divided by all moles in the saturated solution. Regarding `Nc1cc(N)cc(C(=O)O)c1`, the solubility (mole fraction) is, setting by setting: (298.15 K) 0.00334; (303.15 K) 0.00342; (308.15 K) 0.004; (313.15 K) 0.00441; (318.15 K) 0.00519.

On to `N#Cc1ccc(C(=O)O)cc1`, for which the solubility (mole fraction) (298.15 K) came to 0.0214; the solubility (mole fraction) (303.15 K) was determined as 0.0266; the solubility (mole fraction) (308.15 K) was 0.0331; the solubility (mole fraction) (313.15 K) came to 0.0353; the solubility (mole fraction) (318.15 K) worked out at 0.044.

Consider `CC(=O)Oc1ccc(C(=O)O)cc1`, for which the solubility (mole fraction) runs as follows: (298.15 K) 0.0249; (303.15 K) 0.0302; (308.15 K) 0.0358; (313.15 K) 0.0432; (318.15 K) 0.0522.

With `COc1cc(OC)cc(C(=O)O)c1`, the solubility (mole fraction) (298.15 K) was 0.00493; the solubility (mole fraction) (303.15 K) turned out to be 0.00607; the solubility (mole fraction) (308.15 K) was 0.00746; the solubility (mole fraction) (313.15 K) turned out to be 0.00934; the solubility (mole fraction) (318.15 K) amounted to 0.0116.

Take `O=C(O)c1ccc(Cl)cc1Cl`: the solubility (mole fraction) by setting is: (298.15 K) 0.0581; (303.15 K) 0.0693; (308.15 K) 0.0817; (313.15 K) 0.0953; (318.15 K) 0.118.
